Counter-ions that a name gives are not always drawn.
Key:
PDE10A = PDE10A (UniProt Q9Y233); test: Measurement of PDE activity (HTRF cAMP kit, recombinant PDE10A); assay type: biochemical, human, rat and mouse; conditions: substrate 20 nM, 60 minutes at 29° C.
Description: a) Measurement of PDE Activity
The recombinant PDE proteins are used in in vitro enzymatic reaction for measurement of PDE activity. These recombinant proteins, including PDE10A (human, rat and mouse PDE10) and isoforms of PDEs 1, 3, 4, and 5, were purchased from commercial vendor BPS Bioscience. The enzymatic activity of PDEs was determined by cAMP measurement kit from CisBio (IBA) using HTRF technology.
The PDE enzymatic reaction was carried out in assay buffer (20 mM Tris-HCl pH 7.5, 10 mM MgCl2, 0.1% bovine serum albumin) containing enzyme and substrate. […] The substrate cyclic nucleotide (cAMP or cGMP) concentration used in the assay was 20 nM for PDE10, and 100 nM for other PDEs. The inhibitory effect of compound was determined by incubating various concentration of inhibitor in the enzymatic assay. […] Next, the compound at varying concentration was mixed with PDE enzyme. The reaction was initiated by addition of cyclic nucleotide substrate, and incubated for 60 minutes at 29° C. The reaction was stopped by addition of lysis buffer from the assay kit. The cAMP-d2 and anti-cAMP cryptate in the lysis buffer detected the level of cAMP left from the PDE hydrolysis reaction. […] Thus, IC50 value of inhibitor can be obtained by plotting inhibitor concentration against PDE activity at that concentration.

[1] = Determination of the microsomal half-life / microsomal clearance, rat liver microsomes; assay type: in vitro ADME; conditions: 0.5 μM test substance, 0.25 mg of microsomal protein/mL, NADPH, 37° C.
In short: (§1)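 Compound (0.5 μM) was preincubated 5 min at 37 °C with rat or human liver microsomes (0.25 mg protein/mL) in 0.05 M phosphate pH 7.4, and NADPH (1 mg/mL) was then added. Samples taken at 0-30 min and quenched with acetonitrile were analysed by MS/MS. T½ was derived assuming first-order decay, and clearance […] was calculated from T½ and protein content.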

[2] = Determination of the microsomal half-life / microsomal clearance, human liver microsomes; assay type: in vitro ADME; conditions: 0.5 μM test substance, 0.25 mg of microsomal protein/mL, NADPH, 37° C.
In short: as §1

Row | Molecule | IC50 (PDE10A) | Rat mCl [1] | Human mCl [2] | IC50 (PDE10A; (hydrochloride salt)) | Rat mCl ([1]; bis(trifluoroacetate))
1 | 3-[4-oxo-7-(pyridin-4-yl)-5-(2,2,2-trifluoroethyl)-4,5-dihydrothieno[2,3-d]pyridazin-3-yl]benzonitrile [Example 127] | < 0.1 µM | ++ (++: <100 μl min^−1 mg^−1) | ++ (++: <100 μl min^−1 mg^−1) | – | –
2 | Cn1nc(-c2ccncc2)c2scc(NC3COC3)c2c1=O [Example 2, 5-methyl-3-(oxetan-3-ylamino)-7-(pyridin-4-yl)thieno[2,3-d]pyridazin-4(5H)-one] | 0.2 to 0.5 µM | + (+: 100-220 μl min^−1 mg^−1) | ++ (++: <100 μl min^−1 mg^−1) | – | –
3 | Cn1nc(-c2ccncc2)c2scc(N3CCOCC3)c2c1=O [Example 3, 5-methyl-3-(morpholin-4-yl)-7-(pyridin-4-yl)thieno[2,3-d]pyridazin-4(5H)-one] | 0.2 to 0.5 µM | ++ (++: <100 μl min^−1 mg^−1) | ++ (++: <100 μl min^−1 mg^−1) | – | –
4 | Cn1nc(-c2ccncc2)c2scc(-c3cncnc3)c2c1=O [Example 11, 5-methyl-7-(pyridin-4-yl)-3-(pyrimidin-5-yl)thieno[2,3-d]pyridazin-4(5H)-one (hydrochloride salt)] | – | ++ (++: <100 μl min^−1 mg^−1) | ++ (++: <100 μl min^−1 mg^−1) | 0.1 to 0.2 µM | –
5 | Cn1nc(-c2ccncc2)c2scc(-c3cccnc3)c2c1=O.O=C(O)C(F)(F)F [Example 14, 5-methyl-3-(pyridin-3-yl)-7-(pyridin-4-yl)thieno[2,3-d]pyridazin-4(5H)-one bis(trifluoroacetate)] | 0.1 to 0.2 µM | – | ++ (++: <100 μl min^−1 mg^−1) | – | ++ (++: <100 μl min^−1 mg^−1)
6 | Cn1nc(NCc2ccccc2)c2scc(-c3ccncc3)c2c1=O.O=C(O)C(F)(F)F.O=C(O)C(F)(F)F [Example 50, 7-(benzylamino)-5-methyl-3-(pyridin-4-yl)thieno[2,3-d]pyridazin-4(5H)-one bis(trifluoroacetate)] | 0.1 to 0.2 µM | ++ (++: <100 μl min^−1 mg^−1) | ++ (++: <100 μl min^−1 mg^−1) | – | –
7 | Cn1nc(OCc2ccco2)c2scc(-c3ccncc3)c2c1=O [Example 52, 7-(furan-2-ylmethoxy)-5-methyl-3-(pyridin-4-yl)thieno[2,3-d]pyridazin-4(5H)-one] | 0.1 to 0.2 µM | + (+: 100-220 μl min^−1 mg^−1) | ++ (++: <100 μl min^−1 mg^−1) | – | –
8 | Cn1nc(OCc2ccccc2)c2scc(-c3ccncc3)c2c1=O [Example 54, 7-(benzyloxy)-5-methyl-3-(pyridin-4-yl)thieno[2,3-d]pyridazin-4(5H)-one] | 0.1 to 0.2 µM | + (+: 100-220 μl min^−1 mg^−1) | ++ (++: <100 μl min^−1 mg^−1) | – | –
9 | Cn1nc(OCc2ccccn2)c2scc(-c3ccncc3)c2c1=O [Example 55, 5-methyl-3-(pyridin-4-yl)-7-(pyridin-2-ylmethoxy)thieno[2,3-d]pyridazin-4(5H)-one] | 0.1 to 0.2 µM | + (+: 100-220 μl min^−1 mg^−1) | ++ (++: <100 μl min^−1 mg^−1) | – | –
10 | Cn1nc(OCc2nccs2)c2scc(-c3ccncc3)c2c1=O [Example 58, 5-methyl-3-(pyridin-4-yl)-7-(1,3-thiazol-2-ylmethoxy)thieno[2,3-d]pyridazin-4(5H)-one] | < 0.1 µM | ++ (++: <100 μl min^−1 mg^−1) | ++ (++: <100 μl min^−1 mg^−1) | – | –
11 | Cn1nc(OCc2cccc(C#N)c2)c2scc(-c3ccncc3)c2c1=O.O=C(O)C(F)(F)F [Example 59, 3-({[5-methyl-4-oxo-3-(pyridin-4-yl)-4,5-dihydrothieno[2,3-d]pyridazin-7-yl]oxy}methyl)benzonitrile trifluoroacetate] | < 0.1 µM | ++ (++: <100 μl min^−1 mg^−1) | ++ (++: <100 μl min^−1 mg^−1) | – | –
12 | COc1cccc(COc2nn(C)c(=O)c3c(-c4ccncc4)csc23)c1 [Example 61, 7-[(3-methoxybenzyl)oxy]-5-methyl-3-(pyridin-4-yl)thieno[2,3-d]pyridazin-4(5H)-one] | 0.1 to 0.2 µM | + (+: 100-220 μl min^−1 mg^−1) | ++ (++: <100 μl min^−1 mg^−1) | – | –
13 | Cn1nc(OCc2ccc(Cl)cc2)c2scc(-c3ccncc3)c2c1=O [Example 62, 7-[(4-chlorobenzyl)oxy]-5-methyl-3-(pyridin-4-yl)thieno[2,3-d]pyridazin-4(5H)-one] | 0.2 to 0.5 µM | ++ (++: <100 μl min^−1 mg^−1) | ++ (++: <100 μl min^−1 mg^−1) | – | –
14 | Cn1nc(OCc2coc3ccccc23)c2scc(-c3ccncc3)c2c1=O [Example 63, 7-(1-benzofuran-3-ylmethoxy)-5-methyl-3-(pyridin-4-yl)thieno[2,3-d]pyridazin-4(5H)-one] | 0.1 to 0.2 µM | ++ (++: <100 μl min^−1 mg^−1) | ++ (++: <100 μl min^−1 mg^−1) | – | –
15 | Cn1nc(OCc2cccc3ccoc23)c2scc(-c3ccncc3)c2c1=O [Example 64, 7-(1-benzofuran-7-ylmethoxy)-5-methyl-3-(pyridin-4-yl)thieno[2,3-d]pyridazin-4(5H)-one] | 0.1 to 0.2 µM | ++ (++: <100 μl min^−1 mg^−1) | ++ (++: <100 μl min^−1 mg^−1) | – | –
16 | Cn1nc(OCc2cccc(C(N)=O)c2)c2scc(-c3ccncc3)c2c1=O.O=C(O)C(F)(F)F [Example 67, 3-({[5-methyl-4-oxo-3-(pyridin-4-yl)-4,5-dihydrothieno[2,3-d]pyridazin-7-yl]oxy}methyl)benzamide trifluoroacetate] | < 0.1 µM | ++ (++: <100 μl min^−1 mg^−1) | ++ (++: <100 μl min^−1 mg^−1) | – | –
17 | Cn1nc(OCc2ccc3c(c2)OCO3)c2scc(-c3ccncc3)c2c1=O [Example 69, 7-(1,3-benzodioxol-5-ylmethoxy)-5-methyl-3-(pyridin-4-yl)thieno[2,3-d]pyridazin-4(5H)-one] | 0.1 to 0.2 µM | + (+: 100-220 μl min^−1 mg^−1) | ++ (++: <100 μl min^−1 mg^−1) | – | –
18 | Cn1nc(OCc2nc3ccccc3n2C)c2scc(-c3ccncc3)c2c1=O [Example 70, 5-methyl-7-[(1-methyl-1H-benzimidazol-2-yl)methoxy]-3-(pyridin-4-yl)thieno[2,3-d]pyridazin-4(5H)-one] | < 0.1 µM | + (+: 100-220 μl min^−1 mg^−1) | + (+: 100-220 μl min^−1 mg^−1) | – | –
19 | CC(C)Oc1cccc(COc2nn(C)c(=O)c3c(-c4ccncc4)csc23)c1 [Example 73, 5-methyl-7-{[3-(propan-2-yloxy)benzyl]oxy}-3-(pyridin-4-yl)thieno[2,3-d]pyridazin-4(5H)-one] | 0.2 to 0.5 µM | ++ (++: <100 μl min^−1 mg^−1) | ++ (++: <100 μl min^−1 mg^−1) | – | –
20 | COc1cc(COc2nn(C)c(=O)c3c(-c4ccncc4)csc23)cc(OC)c1 [Example 75, 7-[(3,5-dimethoxybenzyl)oxy]-5-methyl-3-(pyridin-4-yl)thieno[2,3-d]pyridazin-4(5H)-one] | < 0.1 µM | ++ (++: <100 μl min^−1 mg^−1) | + (+: 100-220 μl min^−1 mg^−1) | – | –
21 | Cn1nc(OCc2cccc(OC(F)F)c2)c2scc(-c3ccncc3)c2c1=O [Example 76, 7-{[3-(difluoromethoxy)benzyl]oxy}-5-methyl-3-(pyridin-4-yl)thieno[2,3-d]pyridazin-4(5H)-one] | < 0.1 µM | ++ (++: <100 μl min^−1 mg^−1) | ++ (++: <100 μl min^−1 mg^−1) | – | –
22 | CC(Oc1nn(C)c(=O)c2c(-c3ccncc3)csc12)c1nc2ccccc2n1C (stereo not drawn) [Example 78, 5-methyl-7-[1-(1-methyl-1H-benzimidazol-2-yl)ethoxy]-3-(pyridin-4-yl)thieno[2,3-d]pyridazin-4(5H)-one] | < 0.1 µM | + (+: 100-220 μl min^−1 mg^−1) | ++ (++: <100 μl min^−1 mg^−1) | – | –
23 | Cn1nc(Oc2ccccc2)c2scc(-c3ccncc3)c2c1=O [Example 81, 5-methyl-7-phenoxy-3-(pyridin-4-yl)thieno[2,3-d]pyridazin-4(5H)-one] | 0.2 to 0.5 µM | ++ (++: <100 μl min^−1 mg^−1) | ++ (++: <100 μl min^−1 mg^−1) | – | –
24 | Cn1nc(Oc2cccnc2)c2scc(-c3ccncc3)c2c1=O [Example 82, 5-methyl-3-(pyridin-4-yl)-7-(pyridin-3-yloxy)thieno[2,3-d]pyridazin-4(5H)-one] | 0.2 to 0.5 µM | ++ (++: <100 μl min^−1 mg^−1) | ++ (++: <100 μl min^−1 mg^−1) | – | –
25 | Cn1nc(Oc2ccccc2C#N)c2scc(-c3ccncc3)c2c1=O.O=C(O)C(F)(F)F [Example 83, 2-{[5-methyl-4-oxo-3-(pyridin-4-yl)-4,5-dihydrothieno[2,3-d]pyridazin-7-yl]oxy}benzonitrile trifluoroacetate] | 0.1 to 0.2 µM | ++ (++: <100 μl min^−1 mg^−1) | + (+: 100-220 μl min^−1 mg^−1) | – | –
